The values that follow come from patent publication US12486267B2, “Imidazo[1,2-A]pyridine and [1,2,4]triazolo[1,5-A]pyridine derivatives as TLR9 inhibitors for the treatment of fibrosis” (BRISTOL-MYERS SQUIBB COMPANY, priority 2020, dated 2025).

Common to all, as to format: cell-based
The target of one test is T1, human TLR9 (Homo sapiens, UniProt Q9NR96).
T1 sequence (Q9NR96 26-1032): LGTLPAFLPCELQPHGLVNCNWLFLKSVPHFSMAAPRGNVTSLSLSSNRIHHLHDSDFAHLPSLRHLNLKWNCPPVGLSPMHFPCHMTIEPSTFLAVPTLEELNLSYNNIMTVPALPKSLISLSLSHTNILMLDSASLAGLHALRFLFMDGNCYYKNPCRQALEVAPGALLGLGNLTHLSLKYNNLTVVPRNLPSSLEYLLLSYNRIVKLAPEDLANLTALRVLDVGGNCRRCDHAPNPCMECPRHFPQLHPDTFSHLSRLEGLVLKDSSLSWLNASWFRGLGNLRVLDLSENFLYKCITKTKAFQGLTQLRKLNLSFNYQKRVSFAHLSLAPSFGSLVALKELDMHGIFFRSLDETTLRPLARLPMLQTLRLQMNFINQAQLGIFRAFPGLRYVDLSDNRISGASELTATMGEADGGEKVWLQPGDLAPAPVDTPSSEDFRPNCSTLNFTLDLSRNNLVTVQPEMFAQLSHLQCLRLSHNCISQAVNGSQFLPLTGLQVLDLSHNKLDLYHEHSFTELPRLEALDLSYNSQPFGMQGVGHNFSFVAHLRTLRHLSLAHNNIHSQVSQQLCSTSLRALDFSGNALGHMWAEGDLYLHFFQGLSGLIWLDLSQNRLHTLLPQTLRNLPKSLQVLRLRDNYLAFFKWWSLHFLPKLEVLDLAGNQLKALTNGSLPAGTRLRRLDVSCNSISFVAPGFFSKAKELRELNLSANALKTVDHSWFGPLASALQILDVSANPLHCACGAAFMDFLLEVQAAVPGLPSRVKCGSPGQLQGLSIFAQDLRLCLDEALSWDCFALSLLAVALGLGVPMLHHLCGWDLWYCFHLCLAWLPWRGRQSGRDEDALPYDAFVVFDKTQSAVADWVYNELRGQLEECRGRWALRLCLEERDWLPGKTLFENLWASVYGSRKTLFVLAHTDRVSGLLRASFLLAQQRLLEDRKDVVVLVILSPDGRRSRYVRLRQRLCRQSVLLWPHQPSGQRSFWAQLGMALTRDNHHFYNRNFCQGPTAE
In words: TLR9 inhibition reporter assay (HEK-Blue cells, SEAP reporter). The following applies: HEK-Blue cells overexpressing human TLR9; stimulated with ODN2006 5 nM; 22 hour incubation; SEAP readout. In short, it runs like this:
(§1)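 HEK-Blue cells with an NF-κB/AP-1-driven SEAP reporter were pre-treated 30 min at room temperature with compound (0.05 nM–50 μM), then stimulated with gardiquimod 7.5 μM (TLR7), R848 15.9 μM (TLR8) or ODN2006 5 nM (TLR9). After 22 h at 37 °C, SEAP was read; % inhibition was referenced to agonist+DMSO and known-inhibitor wells.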

The next test has as its target T2, human TLR8 (Homo sapiens, UniProt Q9NR97).
T2 sequence (Q9NR97 27-1041): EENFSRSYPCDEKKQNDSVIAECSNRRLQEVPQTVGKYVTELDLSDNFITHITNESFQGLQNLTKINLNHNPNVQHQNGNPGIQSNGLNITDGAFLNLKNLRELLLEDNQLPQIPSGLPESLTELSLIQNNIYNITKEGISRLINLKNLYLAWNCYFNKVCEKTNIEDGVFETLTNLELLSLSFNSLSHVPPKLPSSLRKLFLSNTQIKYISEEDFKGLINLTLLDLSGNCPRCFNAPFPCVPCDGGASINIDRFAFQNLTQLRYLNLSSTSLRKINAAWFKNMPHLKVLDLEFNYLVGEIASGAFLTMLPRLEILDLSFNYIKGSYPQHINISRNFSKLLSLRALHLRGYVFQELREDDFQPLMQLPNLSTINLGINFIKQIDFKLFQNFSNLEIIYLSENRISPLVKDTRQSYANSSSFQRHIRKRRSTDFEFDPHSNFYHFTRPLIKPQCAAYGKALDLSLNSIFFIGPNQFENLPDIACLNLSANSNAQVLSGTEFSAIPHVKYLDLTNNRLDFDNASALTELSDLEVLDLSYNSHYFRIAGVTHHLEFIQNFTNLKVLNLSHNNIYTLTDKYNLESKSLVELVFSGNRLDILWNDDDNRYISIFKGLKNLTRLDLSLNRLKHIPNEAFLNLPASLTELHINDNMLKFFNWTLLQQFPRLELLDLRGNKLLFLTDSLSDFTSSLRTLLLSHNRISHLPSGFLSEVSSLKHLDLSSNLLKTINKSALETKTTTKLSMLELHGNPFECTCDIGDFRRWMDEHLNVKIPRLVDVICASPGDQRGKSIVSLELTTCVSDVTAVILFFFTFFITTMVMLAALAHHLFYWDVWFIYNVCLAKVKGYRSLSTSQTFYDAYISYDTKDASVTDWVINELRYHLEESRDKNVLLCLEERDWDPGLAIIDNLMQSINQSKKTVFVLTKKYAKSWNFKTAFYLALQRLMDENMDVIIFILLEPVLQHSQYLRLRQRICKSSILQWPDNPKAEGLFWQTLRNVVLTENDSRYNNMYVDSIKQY
Put plainly: TLR8 inhibition reporter assay (HEK-Blue cells, SEAP reporter). The following applies: HEK-Blue cells overexpressing human TLR8; stimulated with R848 15.9 μM; 22 hour incubation; SEAP readout. The gist of the method: as §1
On the technique in general: Reporter assays use an easily measured gene product as a stand-in for the process of interest.

The next test deals with T3, human TLR7 (Homo sapiens, UniProt Q9NYK1).
T3 sequence (Q9NYK1 27-1049): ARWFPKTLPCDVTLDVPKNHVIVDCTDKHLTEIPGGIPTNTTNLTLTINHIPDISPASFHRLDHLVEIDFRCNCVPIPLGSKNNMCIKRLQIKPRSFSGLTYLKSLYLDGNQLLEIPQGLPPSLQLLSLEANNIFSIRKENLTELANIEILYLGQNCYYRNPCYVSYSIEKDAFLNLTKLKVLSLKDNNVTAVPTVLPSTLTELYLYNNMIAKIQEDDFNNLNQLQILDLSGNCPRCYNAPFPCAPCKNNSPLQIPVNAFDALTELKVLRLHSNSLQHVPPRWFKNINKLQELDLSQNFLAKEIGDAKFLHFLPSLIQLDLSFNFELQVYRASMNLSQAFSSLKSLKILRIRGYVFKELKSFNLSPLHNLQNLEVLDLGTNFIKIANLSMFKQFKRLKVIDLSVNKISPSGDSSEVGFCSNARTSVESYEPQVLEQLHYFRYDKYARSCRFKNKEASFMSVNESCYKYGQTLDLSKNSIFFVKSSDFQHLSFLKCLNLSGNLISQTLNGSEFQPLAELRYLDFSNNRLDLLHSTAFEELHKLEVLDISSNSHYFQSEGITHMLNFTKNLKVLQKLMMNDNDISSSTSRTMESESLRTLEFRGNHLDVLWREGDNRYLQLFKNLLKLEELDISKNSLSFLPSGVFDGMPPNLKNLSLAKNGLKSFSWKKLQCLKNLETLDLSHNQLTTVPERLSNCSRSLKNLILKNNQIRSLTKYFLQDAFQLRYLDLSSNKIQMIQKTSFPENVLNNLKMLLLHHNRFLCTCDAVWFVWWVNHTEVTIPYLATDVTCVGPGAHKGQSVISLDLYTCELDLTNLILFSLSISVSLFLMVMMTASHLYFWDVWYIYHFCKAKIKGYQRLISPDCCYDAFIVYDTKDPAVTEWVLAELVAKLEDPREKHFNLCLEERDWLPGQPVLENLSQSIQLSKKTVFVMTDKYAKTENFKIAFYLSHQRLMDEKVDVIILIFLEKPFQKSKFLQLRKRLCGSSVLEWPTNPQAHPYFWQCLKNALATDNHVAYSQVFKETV
In words: TLR7 inhibition reporter assay (HEK-Blue cells, SEAP reporter). The following applies: HEK-Blue cells overexpressing human TLR7; stimulated with gardiquimod 7.5 μM; 22 hour incubation; SEAP readout. In short, it runs like this:
as §1

One may read the pIC50 as the IC50 on a negative log10 scale, so that one unit is a factor of ten. A higher pIC50 goes with a low IC50.

SMILES strings stand for the structures. pIC50: −log10 of the molar value.

Consider `COc1ccc(-c2cn3c(n2)CCC(C2CCN(C4CCN(CC5CC5)CC4)CC2)C3)cc1OC` (racemic) [Example 55, 6-(1′-(cyclopropylmethyl)-[1,4′-bipiperidin]-4-yl)-2-(3,4-dimethoxyphenyl)-5,6,7,8-tetrahydroimidazo[1,2-a]pyridine], for which the pIC50 at human TLR9 is 7.42; on human TLR8 it was below 4.30; against human TLR7, 5.80.
With `COc1ccc(-c2cn3cc(C4CCN(C5CCN(C6CC6)CC5)CC4)ccc3n2)cc1OC` [Example 10, 6-(1′-cyclopropyl-[1,4′-bipiperidin]-4-yl)-2-(3,4-dimethoxyphenyl)imidazo[1,2-a]pyridine], the negative-log IC50 (pIC50) is 6.89 on human TLR9, below 4.30 against human TLR8 and 5.28 at human TLR7.
For the compound `COc1ccc(-c2cn3cc(C4CCN(C5CC6CCC(C5)N6C(C)C)CC4)cc(C)c3n2)cc1OC` (single isomer, unassigned) [Example 23, 2-(3,4-dimethoxyphenyl)-6-(1-(8-isopropyl-8-azabicyclo[3.2.1]octan-3-yl)piperidin-4-yl)-8-methylimidazo[1,2-a]pyridine], the negative logarithm of the IC50 (pIC50) on human TLR9 is 6.62; on human TLR8, below 4.30; on human TLR7, 4.51.
Turning to `Cc1cc(C2CCN(C3CCN(C(C)C)CC3)CC2)cn2cc(-c3ccc(S(C)(=O)=O)cc3)nc12` [Example 8, 6-(1′-isopropyl-[1,4′-bipiperidin]-4-yl)-8-methyl-2-(4-(methylsulfonyl)phenyl) imidazo[1,2-a]pyridine], the pIC50 against human TLR9 is 7.68; at human TLR8, below 4.30; against human TLR7, 5.64.
`COc1ccc(-c2cn3cc(C4CCN(C5CCN(C(C)C)CC5)CC4)ccc3n2)cc1OC` [Example 11, 2-(3,4-dimethoxyphenyl)-6-(1′-isopropyl-[1,4′-bipiperidin]-4-yl)imidazo[1,2-a]pyridine]: the pIC50 on human TLR9 is 7.11; at human TLR8 it was below 4.30; against human TLR7, 5.25.
Turning to `COc1ccc(-c2cn3cc(-c4ccc(N5CCN(C6CCOCC6)CC5)cc4)cc(C)c3n2)cc1OC` [Example 97, 2-(3,4-dimethoxyphenyl)-8-methyl-6-(4-(4-(tetrahydro-2H-pyran-4-yl)piperazin-1-yl)phenyl) imidazo[1,2-a]pyridine], the pIC50 against human TLR9 was 5.68; against human TLR8, below 4.60; against human TLR7, below 4.30.
Take `COc1ccc(-c2cn3cc(C4CCN(C5CC6(C5)CN(C5CC5)C6)CC4)cc(C)c3n2)cc1OC` [Example 17, 6-(1-(2-cyclopropyl-2-azaspiro[3.3]heptan-6-yl)piperidin-4-yl)-2-(3,4-dimethoxyphenyl)-8-methylimidazo[1,2-a]pyridine]: the pIC50 on human TLR9 was 7.66; against human TLR8 it was below 4.30; on human TLR7, 5.64.
Regarding `COc1ccc(-c2cn3c(n2)CCC(C2CCN(C4CCN(CC5CC5)CC4)CC2)C3)cc1OC` (single isomer, unassigned) [Example 56, 6-(1′-(cyclopropylmethyl)-[1,4′-bipiperidin]-4-yl)-2-(3,4-dimethoxyphenyl)-5,6,7,8-tetrahydroimidazo[1,2-a]pyridine], the pIC50 against human TLR9 is 6.27; on human TLR8, below 4.30; against human TLR7, 5.42.
For the compound `CC(C)CN1CCCC(N2CCC(c3cc(F)c4nc(-c5ccc(S(C)(=O)=O)cc5)cn4c3)CC2)CC1` (single isomer, unassigned) [Example 125, 8-fluoro-6-(1-(1-isobutylazepan-4-yl)piperidin-4-yl)-2-(4-(methylsulfonyl)phenyl) imidazo[1,2-a]pyridine], the negative-log IC50 (pIC50) against human TLR9 was 7.70; at human TLR8, 4.32; against human TLR7, 4.90.
For `COc1ccc(-c2cn3c(n2)CCC(C2CCN(C4CC5(C4)CN(C(C)C)C5)CC2)C3)cc1OC` (single isomer, unassigned) [Example 47, 2-(3,4-dimethoxyphenyl)-6-(1-(2-isopropyl-2-azaspiro[3.3]heptan-6-yl)piperidin-4-yl)-5,6,7,8-tetrahydroimidazo[1,2-a]pyridine], the results for the negative-log IC50 (pIC50) against human TLR9, at human TLR8 and against human TLR7 were 7.33, below 4.30 and below 4.30, respectively.
For the compound `Cc1cc(C2CCN(C3CC4CCC(C3)N4CC3CC3)CC2)cn2cc(-c3ccc(S(C)(=O)=O)cc3)nc12` (single isomer, unassigned) [Example 87, 6-(1-(8-(cyclopropylmethyl)-8-azabicyclo[3.2.1]octan-3-yl)piperidin-4-yl)-8-methyl-2-(4-(methylsulfonyl)phenyl) imidazo[1,2-a]pyridine], the values for the negative logarithm of the IC50 (pIC50) on human TLR9, against human TLR8 and at human TLR7 were 7.55, below 4.60 and 5.36, respectively.
For `CC(C)N1CCC(N2CCC(c3ccn4cc(-c5ccc(S(C)(=O)=O)cc5)nc4c3F)CC2)CC1` [Example 132, 8-fluoro-7-(1′-isopropyl-[1,4′-bipiperidin]-4-yl)-2-(4-(methylsulfonyl)phenyl) imidazo[1,2-a]pyridine], the negative-log IC50 (pIC50) on human TLR9 was 6.52; against human TLR8 it was below 4.30; on human TLR7 it was 5.40.
